Active and inactive are the calls of the source. The calls are words filed in the database; no cut-off is given here.
Legend:
[1] = test system: PC-12; experiment: Neuroprotective activity against NMDA-induced cell injury in rat PC12 cells assessed as cell viability incubated for 24 hrs MTT assay; assay type: functional, cell-based; settings: dose 2.5-20 µM
[2] = test system: PC-12; experiment: Neuroprotective activity against NMDA-induced cell injury in rat PC12 cells assessed as cell viability at 2.5 to 20 uM incubated for 24 hrs MTT assay; assay type: functional, cell-based; settings: dose 2.5-20 µM
[3] = target: T1, Glutamate receptor ionotropic, NMDA 1 (Homo sapiens, UniProt Q05586); experiment: Binding affinity to C-terminal GFP-tagged Grin1 NMDA receptor (unknown origin) expressed in HEK293F cells assessed as dissociation constant by MST assay; assay type: cell-based
[4] = test system: PC-12; experiment: Neuroprotective activity against NMDA-induced cell injury in rat PC12 cells assessed as cell viability at 20 uM incubated for 24 hrs MTT assay (reference value: 77.1+/- 1.3%); assay type: functional; settings: for viability at 20 µM: Rattus norvegicus; for Activity: 24 h, 20 µM
[5] = test system: PC-12; experiment: Cytotoxicity against rat PC12 cells assessed as reduction in cell viability at 20 uM incubated for 24 hrs by MTT assay; assay type: functional
[6] = test system: PC-12; experiment: Neuroprotective activity against NMDA-induced cell injury in rat PC12 cells assessed as cell viability 5 uM incubated for 24 hrs MTT assay; assay type: functional
[7] = test system: PC-12; experiment: Neuroprotective activity against NMDA-induced cell injury in rat PC12 cells assessed as cell viability 10 uM incubated for 24 hrs MTT assay; assay type: functional
[8] = test system: PC-12; experiment: Effect on cell morphology in NMDA-induced rat PC12 cells assessed as cell shrank at 10 uM pretreated with NMDA for 6 hrs; assay type: functional, cell-based
[9] = target: Glutamate NMDA receptor (Rattus norvegicus) (UniProt P35439+Q00959+Q00960+Q00961+Q62645+Q8VHN2+Q9R1M7); experiment: Antagonist activity at NMDA receptor in rat PC12 cells assessed as reduction in NMDA-induced calcium ion influx at 10 uM pretreated with compound for 24 hrs followed by NMDA addition and measured after 6 hrs calcium colorimetric assay; assay type: cell-based; settings: filed as antagonist, time 30.0 hrs
[10] = test system: PC-12; experiment: Induction of apoptosis in NMDA-induced rat PC12 cells assessed as viable cells at 10 uM pretreated with compound for 24 hrs followed by NMDA addition and measured after 6 hrs by Annexin V-FITC/PI staining based flow cytometer analysis (reference value: 46.58%); assay type: functional; settings: time 30 hrs, read-out: Activity
[11] = test system: PC-12; experiment: Induction of apoptosis in NMDA-induced rat PC12 cells assessed as early apoptotic cells at 10 uM pretreated with compound for 24 hrs followed by NMDA addition and measured after 6 hrs by Annexin V-FITC/PI staining based flow cytometer analysis (reference value: 23.33%); assay type: functional; settings: time 30 hrs
[12] = test system: PC-12; experiment: Induction of apoptosis in NMDA-induced rat PC12 cells assessed as late apoptotic cells at 10 uM pretreated with compound for 24 hrs followed by NMDA addition and measured after 6 hrs by Annexin V-FITC/PI staining based flow cytometer analysis (reference value: 22.09 %); assay type: functional; settings: time 30 hrs
[13] = test system: PC-12; experiment: Induction of apoptosis in NMDA-induced rat PC12 cells assessed as necrotic cells at 10 uM pretreated with compound for 24 hrs followed by NMDA addition and measured after 6 hrs by Annexin V-FITC/PI staining based flow cytometer analysis (reference value: 8%); assay type: functional; settings: time 30 hrs
[14] = target: T1, Glutamate receptor ionotropic, NMDA 1; experiment: Binding affinity to C-terminal GFP-tagged NMDA Grin1.M mutant (unknown origin) expressed in HEK293F cells assessed as dissociation constant by MST assay; assay type: cell-based
[15] = test system: PC-12; experiment: Cytotoxicity against rat PC12 cells assessed as reduction in cell viability at 5 uM incubated for 24 hrs by MTT assay; assay type: functional, cell-based
[16] = PC-12, 24 h, read-out: Activity

What does the source list for `O=C1C[C@@H](c2cccc(OCc3ccccc3)c2)[C@@H]2Cc3ccccc3CN12`?
Activity [1]: Dose-Dependent Effect; Activity [2]: Active; Kd [3]: 370 nM

What does the source list for `O=C1C[C@H](c2cccc(OCc3ccccc3)c2)[C@H]2Cc3ccccc3CN12`?
Activity [1]: Dose-Dependent Effect; Activity [2]: Active; Kd [3]: 162 nM

`O=C1CC(c2ccc(Cl)cc2)C2Cc3ccccc3CN12` (racemic) was tested. Which viability at 20 µM [4, 16] did it give?
Its viability at 20 µM is 77.1%.

What does the source list for `O=C1CC(c2cccc(O)c2)C2Cc3ccccc3CN12` (racemic)?
Activity [5]: >87.9%; viability at 20 µM [4, 16]: 78.4%

Which results are given for `O=C1CC(c2ccccc2)C2Cc3ccc(OCc4ccccc4)cc3CN12` (racemic)?
Activity [5]: >87.9%; viability at 20 µM [4, 16]: 68.5%

Which results are given for `O=C1CC(c2cccc(OCc3ccccc3)c2)C2Cc3ccccc3CN12` (racemic)?
Activity [5]: >87.9%; viability at 20 µM [4, 16]: 94.4%; Activity [1]: Dose-Dependent Effect; Activity [6]: 93.1%; Activity [7]: 92.7%; Activity [8]: Active; Activity [9]: Active; viability at 10 µM [10]: 59.6%; Activity [11]: 15.6%; Activity [12]: 17.88%; Activity [13]: 6.94%; Kd [3]: 496 nM; Kd [14]: 4250 nM

Which Activity [5] does the source give for `O=C1CC(c2ccccc2)C2Cc3ccc(O)cc3CN12` (racemic) here?
Its Activity is >87.9%.

And the viability at 20 µM [4, 16]?
Its viability at 20 µM is 82.4%.

Which Activity [5] does the source give for `O=C1CC(c2ccccc2)C2Cc3ccc(F)cc3CN12` (racemic) here?
Its Activity is >87.9%.

And the viability at 20 µM [4, 16]?
The viability at 20 µM was 82.2%.

Which Activity [5] does the source give for `O=C1CC(c2ccccc2)C2Cc3ccccc3CN12` (racemic; 13a) here?
Its Activity is >87.9%.

What about the viability at 20 µM [4, 16] of the same compound?
Its viability at 20 µM is 85.3%.

How did the Activity [5] turn out when `O=C1CC(c2ccc(F)cc2)C2Cc3ccccc3CN12` (racemic; 13d) was run?
Its Activity is >87.9%.

What about the viability at 20 µM [4, 16] of the same compound?
The viability at 20 µM was 90.6%.

With `O=C1CC(c2ccccc2Cl)C2Cc3ccccc3CN12` (racemic; 13e) as the compound, how does the Activity [5] read?
The Activity was >87.9%.

What about the viability at 20 µM [4, 16] of the same compound?
Its viability at 20 µM is 77.9%.

How did the Activity [5] turn out when `COc1ccc(C2CC(=O)N3Cc4cc(O)ccc4CC23)cc1` (racemic; 13f) was run?
Its Activity is >87.9%.

And the viability at 20 µM [4, 16]?
Its viability at 20 µM is 81.7%.

With `O=C1CC(c2ccc(C(F)(F)F)cc2)C2Cc3ccccc3CN12` (racemic; 13g) as the compound, how does the viability at 20 µM [4, 16] read?
Its viability at 20 µM is 85.6%.

With `Cc1ccc(C2CC(=O)N3Cc4ccccc4CC23)cc1` (racemic; 13i) [listing 1 of 2 here] as the compound, how does the viability at 20 µM [4, 16] read?
Its viability at 20 µM is 77%.

`Cc1ccc(C2CC(=O)N3Cc4ccccc4CC23)cc1` (racemic; 13i) [listing 2 of 2 here] was tested. Which Activity [15] did it give?
The Activity was “Active”.

Which results are given for `O=C1CC(c2cccc(Oc3ccccc3)c2)C2Cc3ccccc3CN12` (racemic; 13j) [listing 1 of 2 here]?
Activity [5]: 3.4%; viability at 20 µM [4, 16]: 77.6%

How did the Activity [15] turn out when `O=C1CC(c2cccc(Oc3ccccc3)c2)C2Cc3ccccc3CN12` (racemic; 13j) [listing 2 of 2 here] was run?
The Activity was “Active”.

What does the source list for `O=C1CC(c2ccccc2Oc2ccccc2)C2Cc3ccccc3CN12` (racemic; 13k)?
Activity [5]: 3.4%; viability at 20 µM [4, 16]: 77.5%

`O=C1CC(c2cccc3ccccc23)C2Cc3ccccc3CN12` (racemic; 13l) was tested. Which viability at 20 µM [4, 16] did it give?
The viability at 20 µM was 74.2%.

For `O=C1CC(c2ccccc2)C2Cc3ccccc3CN12` (racemic; 14a), which Activity [4] is on record?
The Activity was 85%.

Which Activity [4] does the source give for `O=C1CC(c2ccc(F)cc2)C2Cc3ccccc3CN12` (racemic; 14e) here?
The Activity was 88.1%.

With `O=C1CC(c2ccccc2Cl)C2Cc3ccccc3CN12` (racemic; 14f) as the compound, how does the Activity [4] read?
The Activity was 74.8%.

How did the Activity [4] turn out when `COc1ccc(C2CC(=O)N3Cc4cc(O)ccc4CC23)cc1` (racemic; 14g) was run?
Its Activity is 75.2%.

Which Activity [4] does the source give for `O=C1CC(c2ccc(C(F)(F)F)cc2)C2Cc3ccccc3CN12` (racemic; 14h) here?
Its Activity is 78.7%.

How did the Activity [4] turn out when `Cc1ccc(C2CC(=O)N3Cc4ccccc4CC23)cc1` (racemic; 14j) was run?
The Activity was 82.3%.

With `O=C1CC(c2cccc(Oc3ccccc3)c2)C2Cc3ccccc3CN12` (racemic; 14k) [listing 1 of 2 here] as the compound, how does the Activity [4] read?
Its Activity is 72.3%.

With `O=C1CC(c2cccc(Oc3ccccc3)c2)C2Cc3ccccc3CN12` (racemic; 14k) [listing 2 of 2 here] as the compound, how does the Activity [15] read?
Its Activity is “Active”.

Which Activity [4] does the source give for `O=C1CC(c2ccccc2Oc2ccccc2)C2Cc3ccccc3CN12` (racemic; 14l) [listing 1 of 2 here] here?
The Activity was 76.3%.

`O=C1CC(c2ccccc2Oc2ccccc2)C2Cc3ccccc3CN12` (racemic; 14l) [listing 2 of 2 here] was tested. Which Activity [15] did it give?
Its Activity is “Active”.

How did the Activity [4] turn out when `O=C1CC(c2cccc3ccccc23)C2Cc3ccccc3CN12` (racemic; 14m) was run?
Its Activity is 74%.

Which results are given for `C[C@]12N[C@H](Cc3ccccc31)c1ccccc12` [DIZOCILPINE]?
viability at 20 µM ([4]; PC-12, read-out: Activity): 95.1%; Activity [8]: Active; Activity [9]: Active; viability at 10 µM [10]: 70.9%; Activity [11]: 10.22%; Activity [12]: 12.12%; Activity [13]: 6.81%
